Laboratory results as given in patent US20250381110A1, “SKIN CARE COMPOSITION AND METHOD OF USING THE SAME” (THE PROCTER & GAMBLE COMPANY, priority 2024, published 2025).
Counter-ions that a name gives are not always drawn.

System: p62-dependent mitophagy
Experiment: Luciferase-p62 assay (Fluc-p62 clearance) in mouse embryonic fibroblasts
Format: cell-based
Conditions: for Mean Luminescence: Luciferase-p62 assay, mouse embryonic fibroblasts (MEFs), compounds at 10 μM; for % Activity over baseline: percentage of Luciferase-p62 clearance relative to baseline (mean luminescence in the absence of doxycycline induction); for % Activity over baseline / % Activity relative to Rapamycin: MEFs, 10 μM; for % Activity relative to Rapamycin: percentage of activity relative to rapamycin tested in the same experiment at the same concentration
In short: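 MEFs with doxycycline-inducible Fluc-p62; after induction, doxycycline removed and cells treated 48 h with compounds at 10 μM. Fluc-p62 clearance, taken as mitophagy, read by ONE-Glo+Tox luciferase with viability. Vehicle (DMSO) as negative control; activity also expressed relative to rapamycin.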

| SMILES | Mean Luminescence | % Activity over baseline | % Activity relative to Rapamycin |
| --- | --- | --- | --- |
| Nc1nc2c(ncn2[C@@H]2O[C@H](COP(=O)([O-])[O-])[C@@H](O)[C@H]2O)c(=O)[nH]1.[Na+].[Na+] [Guanosine 5′-monophosphate (sodium salt)] | 977.65 | 39.58% | 71.31% |
| COc1cc(CC(=O)O)ccc1O [Homovanillic acid] | 908.95 | 43.83% | 78.96% |
| C[C@]12CCC(=O)C=C1CC[C@@H]1[C@@H]2[C@@H](O)C[C@@]2(C)[C@H]1CC[C@]2(O)C(=O)CO [Hydrocortisone] | 801.04 | 50.50% | 90.98% |
| CC[C@H]1CN2CC[C@H]1C[C@@H]2[C@@H](O)c1ccnc2ccc(OC)cc12 [Hydroquinidine] | 958.47 | 40.77% | 73.45% |
| OCCc1ccc(O)c(O)c1 [Hydroxytyrosol] | 839.13 | 48.14% | 86.74% |
| CC1=C[C@]23C(=O)[C@@H](C=C(CO)[C@@H](O)[C@]2(O)[C@H]1O)[C@H]1[C@@H](C[C@H]3C)C1(C)C [Ingenol] | 930.73 | 42.48% | 76.54% |
| CC(C)CC(=O)NCC(=O)O [Isovaleroylglycine] | 776.88 | 51.99% | 93.67% |
| C=C(CC(=O)O)C(=O)O [Itaconic acid] | 640.97 | 60.39% | 108.80% |
| CCC(C)n1ncn(-c2ccc(N3CCN(c4ccc(OCC5COC(Cn6cncn6)(c6ccc(Cl)cc6Cl)O5)cc4)CC3)cc2)c1=O (stereo not drawn) [Itraconazole] | 450.47 | 72.16% | 130.02% |
| O=C1C=CC(=O)c2c(O)cccc21 [Juglone] | 894.51 | 44.72% | 80.57% |
| CC(C)C(=O)C(=O)O [Ketoisovaleric acid] | 921.08 | 43.08% | 77.61% |
| CC[C@H](N)C(=O)O [L(+)-2-Aminobutyric acid] | 981.68 | 39.33% | 70.87% |
| CC(=O)O[C@H](CC(=O)O)C[N+](C)(C)C.[Cl-] [L-Acetylcarnitine (hydrochloride)] | 581.20 | 64.08% | 115.46% |
| CC(C)=CCC[C@@H](C)[C@H]1CC[C@@]2(C)C3=C(CC[C@]12C)[C@@]1(C)CC[C@H](O)C(C)(C)[C@@H]1CC3 [Lanosterol] | 957.65 | 40.82% | 73.54% |
| CS(=O)(=O)CCNCc1ccc(-c2ccc3ncnc(Nc4ccc(OCc5cccc(F)c5)c(Cl)c4)c3c2)o1 [Lapatinib Ditosylate] | 578.14 | 64.27% | 115.80% |
| N[C@@H](Cc1cc(I)c(Oc2cc(I)c(O)c(I)c2)c(I)c1)C(=O)O [Levothyroxine sodium] | 974.14 | 39.80% | 71.71% |
| CC(=O)CCC(=O)O [Levulinic acid] | 771.58 | 52.32% | 94.26% |
| COc1cc2c(cc1OC)[C@@H](Cc1ccc(O)c(Oc3cc4c(cc3OC)CCN(C)[C@@H]4Cc3ccc(O)cc3)c1)N(C)CC2 [Liensinine] | 923.21 | 42.94% | 77.38% |
| CC1(C)O[C@H]2CC(=O)OC[C@]23[C@H]2CC[C@@]4(C)[C@H](c5ccoc5)OC(=O)[C@H]5O[C@]54[C@]2(C)C(=O)C[C@@H]13 [Limonin] | 753.03 | 53.46% | 96.33% |
| CCOC(=O)O[C@]1(C(=O)OCCl)CC[C@H]2[C@@H]3CCC4=CC(=O)C=C[C@]4(C)[C@H]3[C@@H](O)C[C@@]21C [Loteprednol etabonate] | 214.82 | 86.72% | 156.26% |
| C=CCc1ccc(O)c(-c2cc(CC=C)ccc2O)c1 [Magnolol] | 950.75 | 41.24% | 74.31% |
| O=C(O)CC(O)C(=O)O (stereo not drawn) [Malic acid] | 962.28 | 40.53% | 73.03% |
| O=C(O)CC(=O)O [Malonic acid] | 865.42 | 46.52% | 83.81% |

| SMILES | Mean Luminescence | % Activity over baseline | % Activity relative to Rapamycin |
| --- | --- | --- | --- |
| CCOC(=O)c1c(C)n(C)c2ccc(O)cc12 [Mecarbinate] | 799.96 | 50.56% | 91.10% |
| CC(=O)O[C@]1(C(C)=O)CC[C@H]2[C@@H]3C[C@H](C)C4=CC(=O)CC[C@]4(C)[C@H]3CC[C@@]21C [Medroxyprogesterone acetate] | 800.04 | 50.56% | 91.09% |
| Nc1nc(N)nc(N)n1 [Melamine] | 960.76 | 40.62% | 73.19% |
| OC[C@H]1O[C@H](OCC2O[C@@H](O)[C@H](O)[C@@H](O)[C@@H]2O)[C@H](O)[C@@H](O)[C@H]1O (stereo partly drawn) [Melibiose] | 715.78 | 55.76% | 100.47% |
| CN1CCN2c3ccccc3Cc3ccccc3C2C1 (stereo not drawn) [Mianserin HCl] | 960.23 | 40.66% | 73.25% |
| Clc1ccc(COC(Cn2ccnc2)c2ccc(Cl)cc2Cl)c(Cl)c1 (stereo not drawn) [Miconazole Nitrate] | 704.35 | 56.47% | 101.75% |
| Clc1ccc(COC(Cn2ccnc2)c2ccc(Cl)cc2Cl)c(Cl)c1 (stereo not drawn) [Miconazole] | 297.40 | 81.62% | 147.06% |
| CO[C@@]12[C@H](COC(N)=O)C3=C(C(=O)C(C)=C(N)C3=O)N1C[C@@H]1N[C@@H]12 [Mitomycin C] | 867.02 | 46.42% | 83.63% |
| COC(=O)c1c2c(c3ccccc3c1O)OC(C)(C)C=C2 [Mollugin] | 709.65 | 56.14% | 101.16% |
| CO/N=C1\C[C@]2(C[C@@H]3C[C@@H](C/C=C(\C)C[C@@H](C)/C=C/C=C4\CO[C@@H]5[C@H](O)C(C)=C[C@@H](C(=O)O3)[C@]45O)O2)O[C@H](/C(C)=C/C(C)C)[C@H]1C [Moxidectin] | 476.19 | 70.57% | 127.15% |
| C[C@@H]1CCCCCCCCCCCCC(=O)C1 [Muscone] | 869.43 | 46.27% | 83.36% |
| COc1c(C)c2c(c(O)c1C/C=C(\C)CCC(=O)OCCN1CCOCC1)C(=O)OC2 [Mycophenolate Mofetil] | 594.21 | 63.28% | 114.01% |
| COc1c(C)c2c(c(O)c1C/C=C(\C)CCC(=O)O)C(=O)OC2 [Mycophenolic acid] | 821.72 | 49.22% | 88.68% |
| CC(=O)NCCc1c[nH]c2ccc(O)cc12 [N-Acetylserotonin] | 978.08 | 39.55% | 71.27% |
| CCN1C(=O)C=CC1=O [N-Ethylmaleimide (NEM)] | 668.28 | 58.70% | 105.76% |
| CO[C@]12C[C@@H](COC(=O)c3cncc(Br)c3)CN(C)[C@@H]1Cc1cn(C)c3cccc2c13 [Nicergoline] | 764.49 | 52.75% | 95.05% |
| CC(Cc1ccc(O)c(O)c1)C(C)Cc1ccc(O)c(O)c1 (stereo not drawn) [Nordihydroguaiaretic acid] | 964.84 | 40.37% | 72.74% |
| CO[C@H]1C[C@H](O[C@H]2CC[C@@]3(C)[C@H](CC[C@@H]4[C@@H]3CC[C@]3(C)[C@@H](C5=CC(=O)OC5)[C@@H](OC(C)=O)C[C@]43O)C2)O[C@@H](C)[C@@H]1O [Oleandrin] | 766.18 | 52.65% | 94.86% |
| C/C=C1/[C@H](O[C@@H]2O[C@H](CO)[C@@H](O)[C@H](O)[C@H]2O)OC=C(C(=O)OC)[C@H]1CC(=O)OCCc1ccc(O)c(O)c1 [Oleuropein] | 843.32 | 47.88% | 86.27% |
| C[C@@H]1O[C@@H](O[C@H]2C[C@@H](O)[C@]3(CO)[C@H]4[C@H](O)C[C@]5(C)[C@@H](C6=CC(=O)OC6)CC[C@]5(O)[C@@H]4CC[C@]3(O)C2)[C@H](O)[C@H](O)[C@H]1O [Ouabain] | 788.34 | 51.28% | 92.39% |
| CCN(CC)CC#CCOC(=O)C(O)(c1ccccc1)C1CCCCC1 (stereo not drawn) [Oxybutynin chloride] | 882.87 | 45.44% | 81.87% |
| Oc1cc(O)cc(/C=C/c2ccc(O)cc2O)c1 [Oxyresveratrol] | 403.74 | 75.05% | 135.22% |
